Data on 32 compounds can be found in patent US12486264B2, “Bicyclic HPK1 inhibitors” (Janssen Pharmaceutica NV, priority 2019, dated 2025).

The target in one test is T1, full-length human Hpk1 (Homo sapiens, UniProt Q92918).
T1 construct: full-length human Hpk1 with an N-terminal Glutatione S-transferase (GST) tag; GST (N); made in house; host or cells: baculovirus/insect cell expression system
Put plainly: HPK1 kinase assay (ADP Glo). It counts as biochemical. Conditions: GST-Hpk1, 75 μM ATP solution added, ADP Glo luminescence; for IC50: read-out: Hpk1 biochemical (pIC50) (converted). The method, then: A recombinant fusion protein consisting of full-length human Hpk1 with an N-terminal Glutatione S-transferase (GST) tag was produced in a baculovirus/insect cell expression system. GST-Hpk1 protein was purified from cell lysates by glutathione sepharose affinity chromatography. Kinase inhibition was determined using the ADP Glo™ Kinase Assay kit (Promega, V9101). Test compounds were prepared by serial dilution in dimethyl sulfoxide (DMSO) and 0.1 μl of each dilution was spotted onto a 384-well white Proxiplate (Perkin Elmer, 6008289). 8 μl of kinase assay buffer (40 mM Tris pH 7.5, 2 mM dithiothreitol (DTT), 0.05% Bovine Serum Albumin, 5 mM MgCl2) containing Hpk1 protein was transferred to each well and incubated for 30-45 minutes at room temperature. The enzymatic reaction was started by adding 2 μl of kinase assay buffer containing 75 μM ATP. After 120 minutes, the reaction was stopped by adding 3 μl of ADP Glo™ reagent (Promega, V9101) and incubating 45 minutes at room temperature.

The target in the next test is T2, Hpk1 (Homo sapiens, UniProt Q92918).
T2 construct: expressed in transfected cells; host or cells: HEK293 cells engineered to express Hpk1 and SLP76
T2 sequence (Q92918 whole entry): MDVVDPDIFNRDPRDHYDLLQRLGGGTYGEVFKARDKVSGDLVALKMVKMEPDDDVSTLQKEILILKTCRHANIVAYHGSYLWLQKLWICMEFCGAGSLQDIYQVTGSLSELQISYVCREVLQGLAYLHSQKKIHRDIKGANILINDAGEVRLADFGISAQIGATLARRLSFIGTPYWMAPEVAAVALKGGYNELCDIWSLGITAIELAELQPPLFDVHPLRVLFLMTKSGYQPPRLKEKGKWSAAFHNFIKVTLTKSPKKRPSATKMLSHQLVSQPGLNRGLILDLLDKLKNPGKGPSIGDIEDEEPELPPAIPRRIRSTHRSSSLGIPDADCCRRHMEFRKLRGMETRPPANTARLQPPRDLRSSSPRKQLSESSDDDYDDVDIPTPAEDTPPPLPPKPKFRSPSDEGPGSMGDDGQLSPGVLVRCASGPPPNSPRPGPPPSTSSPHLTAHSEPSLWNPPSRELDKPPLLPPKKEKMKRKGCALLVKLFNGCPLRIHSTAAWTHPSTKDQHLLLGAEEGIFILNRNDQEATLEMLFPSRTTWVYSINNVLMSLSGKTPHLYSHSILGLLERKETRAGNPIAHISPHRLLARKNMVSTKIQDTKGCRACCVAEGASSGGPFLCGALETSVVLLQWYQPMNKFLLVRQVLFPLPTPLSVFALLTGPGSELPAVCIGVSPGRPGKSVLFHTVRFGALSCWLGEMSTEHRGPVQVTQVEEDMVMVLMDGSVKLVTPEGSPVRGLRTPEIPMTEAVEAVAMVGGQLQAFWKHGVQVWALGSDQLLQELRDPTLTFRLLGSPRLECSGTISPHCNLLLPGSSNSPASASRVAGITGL
Put plainly: SLP76 phosphorylation assay (HEK293 cells expressing Hpk1 and SLP76). It counts as cell-based. Conditions: SLP76 phosphorylation at S376, HEK293 cells expressing Hpk1 and SLP76, 4 hours incubation; for IC50: read-out: pSLP76 (HEK293) (pIC50) (converted). How it is done: Hpk1 inhibition in cells was determined by detection of SLP76 phosphorylation at S376 in lysates from HEK293 cells engineered to express Hpk1 and SLP76. Serial dilutions of test compounds were prepared in cell culture medium and 20 μl was transferred into each well of a 96-well plate containing HEK293 cells in 180 μl of culture medium. After incubation for 4 hours at 37° C./5% CO2, the culture medium was removed, plates were put on ice and cells washed with cold Minimal Essential Medium before lysing in 90 μl of cold Mammalian Protein Extraction Reagent (Thermo Scientific, 78501) for 30 minutes on ice. The cell lysates were transferred to another 96-well plate, centrifuged 10 minutes at 3000 rcf (4° C.) and 30 μl transferred to a 96-well High-bind plate (MSD, L15XB-3). After coating overnight at 4° C., the cell lysate was removed, wells were washed with base buffer (TBS, 0.2% Tween-20), and blocking solution (base buffer containing 3% MSD blocker A) was added to each well for 1 hour at room temperature. The blocking solution was removed, the wells were washed with base buffer, and detection antibody (SLP76 pS376) was added in 25 μl base buffer containing 1% MSD blocker A to each well. After a 2 h incubation at room temperature, the detection antibody was removed, wells were washed four times with base buffer, 25 μl SULFO-TAG labeled goat anti-rabbit secondary antibody (MSD, R32AB-1) in base buffer containing 1% MSD blocker A was added to each well and left for 1 hour at room temperature. Wells were washed 4 times with base buffer, 150 μl Read Buffer T was added to each well, and the plates were read in a Mesoscale plate reader (MSD). IC50 values were determined by curve-fitting the electrochemiluminescent signals obtained from the lysates of HEK293 cells expressing Hpk1 and SLP76 treated with test compounds at various concentrations minus the signal obtained from HEK293 cells expressing SLP76 only.

T1 sequence (Q92918 whole entry): as above

For `CC(C)[C@H](CO)CNC(=O)c1c[nH]c2ncc(-c3ccc(C4CCOCC4)c(CN(C)C)c3)cc12` (single isomer, unassigned) [Co. 31a], the IC50 is 0.00339 µM on full-length human Hpk1 and 0.257 µM on Hpk1.
Consider `CC(C)[C@@H](CO)CNC(=O)c1c[nH]c2ncc(-c3ccc(C4CCOCC4)c(CN(C)C)c3)cc12` (single isomer, unassigned) [Co. 31b], for which the IC50 is 0.0263 µM at full-length human Hpk1 and 1.32 µM on Hpk1.
On the same counts, the results for `Cc1c[nH]c2ncc(-c3ccc(C4CCOCC4)c([C@@H]4CCCN4)c3)cc12` [Co. 1] are 0.00186 µM and 0.288 µM.
For the compound `Cc1cc2cc(-c3ccc(C4CCOCC4)c(C4CCCN4)c3)cnc2[nH]1` (stereo not shown) [Co. 2], the IC50 at full-length human Hpk1 is 0.145 µM; at Hpk1, 6.76 µM.
On the same counts, the results for `N#Cc1c[nH]c2ncc(-c3ccc(C4CCOCC4)c(C4CCCN4)c3)cc12` (stereo not shown) [Co. 3] are 0.00316 µM and 0.257 µM.
The corresponding values for `N#CCc1c[nH]c2ncc(-c3ccc(C4CCOCC4)c([C@@H]4CCCN4)c3)cc12` [Co. 4] are 0.0112 µM and 0.12 µM.
Regarding `c1cc2cc(-c3ccc(C4CCOCC4)c(C4CCCN4)c3)cnc2[nH]1` (stereo not shown) [Co. 6], the IC50 at full-length human Hpk1 is 0.0302 µM; at Hpk1 it was 0.389 µM.
Take `Cc1c[nH]c2ncc(-c3ccc(C4CCOCC4)c([C@@H]4COCCN4)c3)cc12` [Co. 8]: the values for the IC50 on full-length human Hpk1 and on Hpk1 were 0.00447 µM and 0.112 µM, respectively.
With `CC(C)C(O)CNC(=O)c1c[nH]c2ncc(-c3ccc(C4CCOCC4)c(CN(C)C)c3)cc12` (stereo not shown) [Co. 11], the IC50 was 0.0219 µM on full-length human Hpk1 and 3.55 µM at Hpk1.
The corresponding values for `CN(C)Cc1cc(-c2cnc3[nH]cc(C(=O)NCC(C)(C)O)c3c2)ccc1C1CCOCC1` [Co. 12] are 0.00575 µM and 0.575 µM.
In the case of `CN(C)Cc1cc(-c2cnc3[nH]cc(C(=O)NCC(CO)C4CC4)c3c2)ccc1C1CCOCC1` (stereo not shown) [Co. 13], the IC50 at full-length human Hpk1 is 0.012 µM; at Hpk1, 0.759 µM.
Turning to `CN(C)Cc1cc(-c2cnc3[nH]cc(C(=O)NCC4(CO)CC4)c3c2)ccc1C1CCOCC1` [Co. 15], the IC50 on full-length human Hpk1 was 0.00794 µM; at Hpk1 it was 0.38 µM.
For `CN(C)Cc1cc(-c2cnc3[nH]cc(C(=O)NCC4(CO)COC4)c3c2)ccc1C1CCOCC1` [Co. 16], the figures for the IC50 on full-length human Hpk1 and on Hpk1 were 0.0537 µM and over 10 µM, respectively.
The corresponding values for `CN(C)Cc1cc(-c2cnc3[nH]cc(C(=O)NCC4(CO)CCCC4)c3c2)ccc1C1CCOCC1` [Co. 17] are 0.0038 µM and 0.251 µM.
The corresponding values for `CN(C)Cc1cc(-c2cnc3[nH]cc(C(=O)N[C@@H]4CCC[C@@H]4O)c3c2)ccc1C1CCOCC1` [Co. 18] are 0.00288 µM and 0.263 µM.
The corresponding values for `CN(C)Cc1cc(-c2cnc3[nH]cc(C(=O)NCc4ncco4)c3c2)ccc1C1CCOCC1` [Co. 19] are 0.0102 µM and 1.02 µM.
In the case of `CN(C)Cc1cc(-c2cnc3[nH]cc(C(=O)NCc4nccn4C)c3c2)ccc1C1CCOCC1` [Co. 20a], the IC50 was 0.0282 µM on full-length human Hpk1 and 6.92 µM at Hpk1.
On the same counts, the results for `CN(C)Cc1cc(-c2cnc3[nH]cc(C(=O)N(C)C)c3c2)ccc1C1CCOCC1` [Co. 20b] are 0.0933 µM and 7.24 µM.
As for `Cc1nnc(CNC(=O)c2c[nH]c3ncc(-c4ccc(C5CCOCC5)c(CN(C)C)c4)cc23)o1` [Co. 21], the IC50 is 0.0339 µM on full-length human Hpk1 and 9.55 µM on Hpk1.
Take `Cc1nc(CNC(=O)c2c[nH]c3ncc(-c4ccc(C5CCOCC5)c(CN(C)C)c4)cc23)no1` [Co. 22]: the IC50 was 0.0589 µM at full-length human Hpk1 and 6.46 µM on Hpk1.
With `CN(C)Cc1cc(-c2cnc3[nH]cc(C(=O)NCC4(O)CCCC4)c3c2)ccc1C1CCOCC1` [Co. 23], the results for the IC50 at full-length human Hpk1 and on Hpk1 were 0.0105 µM and 1.58 µM, respectively.
The corresponding values for `CN(C)Cc1cc(-c2cnc3[nH]cc(C(=O)NCc4nccs4)c3c2)ccc1C1CCOCC1` [Co. 24] are 0.00447 µM and 1.55 µM.
As for `CN(C)Cc1cc(-c2cnc3[nH]cc(C(=O)NCC4CCC(=O)N4C)c3c2)ccc1C1CCOCC1` (stereo not shown) [Co. 26], the IC50 on full-length human Hpk1 is 0.0389 µM; on Hpk1, 4.27 µM.
Turning to `CC(CO)CNC(=O)c1c[nH]c2ncc(-c3ccc(C4CCOCC4)c(CN(C)C)c3)cc12` (stereo not shown) [Co. 27], the “Hpk1 biochemical (pIC50)” value at full-length human Hpk1 came to 7.93. Moreover, the “pSLP76 (HEK293) (pIC50)” value at Hpk1 turned out to be 5.94.
For the compound `CN(C)Cc1cc(-c2cnc3[nH]cc(C(=O)NCCNC(=O)C(F)F)c3c2)ccc1C1CCOCC1` [Co. 29], the IC50 at full-length human Hpk1 is 0.0123 µM; on Hpk1 it was 1.55 µM.
As to `COCC(C)(O)CNC(=O)c1c[nH]c2ncc(-c3ccc(C4CCOCC4)c(CN(C)C)c3)cc12` (stereo not shown) [Co. 30], the IC50 at full-length human Hpk1 was 0.0158 µM; on Hpk1, 2.14 µM.
On the same counts, the results for `CC(=O)N(C)CCNC(=O)c1c[nH]c2ncc(-c3ccc(C4CCOCC4)c(CN(C)C)c3)cc12` [Co. 32] are 0.0661 µM and 1.58 µM.
As to `CN(C)Cc1cc(-c2cnc3[nH]cc(C(=O)NS(=O)(=O)C4CC4)c3c2)ccc1C1CCOCC1` [Co. 33], the IC50 was 0.00912 µM at full-length human Hpk1 and over 10 µM at Hpk1.
The corresponding values for `CC(C)C(CO)CNCc1c[nH]c2ncc(-c3ccc(C4CCOCC4)c(CN(C)C)c3)cc12` (stereo not shown) [Co. 34] are 0.324 µM and over 10 µM.
On the same counts, the results for `c1coc(CNCc2c[nH]c3ncc(-c4ccc(C5CCOCC5)c(C5CCCN5)c4)cc23)n1` (stereo not shown) [Co. 35] are 0.0229 µM and 3.02 µM.
As for `CC(C)C(CO)CNC(c1c[nH]c2ncc(-c3ccc(C4CCOCC4)c(CN(C)C)c3)cc12)C(F)(F)F` (stereo not shown) [Co. 36], the results for the IC50 at full-length human Hpk1 and at Hpk1 were 0.0407 µM and 2.63 µM, respectively.
The corresponding values for `CN(C)Cc1cc(-c2cnc3[nH]cc(C(NCc4ncco4)C(F)(F)F)c3c2)ccc1C1CCOCC1` (stereo not shown) [Co. 37] are 0.0219 µM and 1.66 µM.
